The text below walks through data of patent US20260077000A1, “METABOLIC MODULATION OF INTRATUMORAL CHOLESTEROL WITH ENGINEERED BACTERIA FOR THE TREATMENT OF CANCERS” (Hong Kong Baptist University, priority 2024, published 2026).

The Kd is the free concentration of one partner at which half of the binding sites on the other are occupied at equilibrium, for simple one-to-one binding.

This test deals with recombinant extracellular domain of EGFR (EGFR-ECD) (Homo sapiens, UniProt P00533). Put plainly: Microscale thermophoresis (MST), EGFR-ECD binding. Here is the method: Recombinant human protein was labeled with a Monolith NT Protein Labeling Kit RED-NHS (Nanotemper, Munich, Germany) and diluted to 50 nM with HEPES buffer (10 mM HEPES, 150 mM NaCl, 0.05% Tween). […] Samples were incubated at room temperature for 5 minutes. The mixtures were centrifuged at 16,000×g for 5 minutes and loaded into capillaries. Microscale thermophoresis measurements were performed using a Monolith NT.115 (Nanotemper, Munich, Germany).
recombinant extracellular domain of EGFR (EGFR-ECD), sequence (P00533 25-645 limits assumed): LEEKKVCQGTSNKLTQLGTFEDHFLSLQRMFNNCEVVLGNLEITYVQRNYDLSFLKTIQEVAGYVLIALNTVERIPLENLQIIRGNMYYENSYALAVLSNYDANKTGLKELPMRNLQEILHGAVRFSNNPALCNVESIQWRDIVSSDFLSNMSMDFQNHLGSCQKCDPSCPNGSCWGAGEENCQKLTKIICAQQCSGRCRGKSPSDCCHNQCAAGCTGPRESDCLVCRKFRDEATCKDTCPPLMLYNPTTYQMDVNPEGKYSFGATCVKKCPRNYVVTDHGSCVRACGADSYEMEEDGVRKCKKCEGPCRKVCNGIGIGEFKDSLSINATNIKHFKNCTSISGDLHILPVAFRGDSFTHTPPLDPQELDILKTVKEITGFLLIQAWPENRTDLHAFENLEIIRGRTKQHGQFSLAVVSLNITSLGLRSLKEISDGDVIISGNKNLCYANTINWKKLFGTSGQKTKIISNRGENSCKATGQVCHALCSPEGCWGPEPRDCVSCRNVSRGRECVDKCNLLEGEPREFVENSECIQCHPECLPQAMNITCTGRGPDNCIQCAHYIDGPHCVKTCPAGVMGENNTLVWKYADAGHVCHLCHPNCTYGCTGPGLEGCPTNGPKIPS
In general terms: MST reads how a fluorescent partner responds to local heating, with and without ligand.

In the case of `CC(C)CCC[C@@H](C)[C@H]1CC[C@H]2[C@@H]3CCC4=CC(=O)CC[C@]4(C)[C@H]3CC[C@]12C` [4-C-3, 4-cholesten-3-one], the Kd was 5.6 µM.
